Measurements taken from patent US9963456B2, “Pyrrolopyrimidine compound or salt thereof and compositions containing the pyrrolopyrimidine compound or salt thereof” (TAIHO PHARMACEUTICAL CO., LTD., priority 2014, dated 2018).

Tests used:
carbonic anhydrase II = carbonic anhydrase II (Homo sapiens (Human), UniProt P00918); experiment: Carbonic anhydrase II enzyme activity inhibition (4-NPA esterase activity); assay type: biochemical; details: for IC50: 4-nitrophenyl acetate esterase activity, absorbance at 405 nm
[1] = tested on: human osteo- and soft tissue sarcoma SJCRH30 cell line; experiment: Cell growth inhibition 2, SJCRH30; assay type: cell-based; details: 384-well plate
[2] = tested on: Human colon cancer HCT-116 cell lines; experiment: Antitumor effect on tumor cells transplanted into mice 1; assay type: in vivo; details: for T/C15 (%): HCT-116 s.c. in BALB/cAJcl-nu/nu mice; for RTV15 comparison with the control: Dunnett's test; for BWC15 (%) Mean ± SD: body weight change
Description: Human colon cancer HCT-116 cell lines were washed in PBS and suspended at a concentration of 4×10^7 cells/mL. 0.1 mL of this cell suspension was subcutaneously implanted in the right chest of 6-week-old BALB/cAJcl-nu/nu mice (produced by CLEA Japan, Inc.).
(§1) The length and the width of the implanted tumor and the body weight were measured. The tumor volume (TV) was calculated using the following equation (equation D). TV(mm3)=(length×width^2)/2, wherein the unit of length and width is mm (equation D).
When the TV reached 100 to 300 mm3, the animals were assigned to each group in accordance with a stratified randomization procedure. The day was considered day 1, the TV on the day was considered TV1, and the body weight on the day was considered BW1.
A required amount of the test compound was weighed to prepare an administration solution.
(§2) Thereafter, the length and the width of the tumor and the body weight (BWn) on day n were measured over time in the same manner, and the TVn of each mouse was calculated. Further, the relative tumor volume (RTVn) was calculated based on the TVn of each mouse using the following equation (equation E); the treatment/control (T/C) value (%) was calculated based on the mean RTVn of each drug administration group using the following equation (equation F); and the weight change rate (BWCn) was calculated using the following equation (equation G). RTVn=TVn/TV1 (equation E) T/Cn(%)=(mean RTV of each drug administration group on the last day of the test)/(mean RTV of the control group on the last day of the test)×100 (equation F) BWCn (%)=(BWn−BW1)/BW1×100 (equation G) FIGS. 1 and 2, and Table 21 below show the results.

[3] = tested on: Human colon cancer HCT-116 cell lines; experiment: Antitumor effect on tumor cells transplanted into mice 2; assay type: in vivo
[4] = tested on: human acute lymphoblastic leukemia (ALL) CCRF-CEM cell lines; experiment: Antitumor effect on tumor cells transplanted into mice 3; assay type: in vivo; details: for RTV comparison with the control on day 15 / T/C15 / RTV comparison with the Comparative Example / BWC15 Mean ± SD: CCRF-CEM xenograft in nude mice; for RTV comparison with the control on day 15 / RTV comparison with the Comparative Example: compound hydrochlorides intravenously, Dunnett's test; for T/C15 / BWC15 Mean ± SD: 50 mg/kg/day intravenous; for T/C15: administration days 1, 8, day 15; for BWC15 Mean ± SD: body weight change rate, days 1, 8, day 15; for change of the body weight compared with the control: CCRF-CEM xenograft mice
Description: as §1, §2
The tumor growth inhibitory effects on human tumors were evaluated as in Test Example 5, except that the compound hydrochloride obtained in Example 122, the compound hydrochloride (Example 64), and human acute lymphoblastic leukemia (ALL) CCRF-CEM cell lines were used, and the animals were assigned to each group in accordance with a stratified randomization procedure when the TV reached 140 to 380 mm3.
At this time, the cell lines were washed in PBS, and suspended in 50% PBS and 50% Matrigel basement membrane matrix (#356237; produced by BD Biosciences) at a concentration of 1×10^8 cells/mL. 0.1 mL of this cell suspension was subcutaneously implanted to the right chest of 6-week-old BALB/cAJcl-nu/nu mice (nude mice) (produced by CLEA Japan, Inc.). The compound hydrochloride (Example 122) was intravenously administered in an amount of 5 mL per 1 kg of body weight on days 1 and 8, and the compound hydrochloride (Example 133) was intravenously administered in an amount of 5 mL per 1 kg of body weight on days 1 and 8.

[5] = tested on: human acute lymphoblastic leukemia (ALL) CCRF-CEM cell lines; experiment: as above; assay type: in vivo; details: CCRF-CEM xenograft in nude mice, 120 mg/kg/day intravenous
[6] = biological target: NAE (heterodimer of APPBP1 and UBA3) (Homo sapiens (Human), UniProt Q8TBC4); experiment: Nedd8 conjugation inhibitory activity (AlphaScreen assay); assay type: biochemical; details: purified NAE, GST-UBC12, Biotin-Nedd8, ATP
Chain of NAE (heterodimer of APPBP1 and UBA3) (Q8TBC4 whole entry): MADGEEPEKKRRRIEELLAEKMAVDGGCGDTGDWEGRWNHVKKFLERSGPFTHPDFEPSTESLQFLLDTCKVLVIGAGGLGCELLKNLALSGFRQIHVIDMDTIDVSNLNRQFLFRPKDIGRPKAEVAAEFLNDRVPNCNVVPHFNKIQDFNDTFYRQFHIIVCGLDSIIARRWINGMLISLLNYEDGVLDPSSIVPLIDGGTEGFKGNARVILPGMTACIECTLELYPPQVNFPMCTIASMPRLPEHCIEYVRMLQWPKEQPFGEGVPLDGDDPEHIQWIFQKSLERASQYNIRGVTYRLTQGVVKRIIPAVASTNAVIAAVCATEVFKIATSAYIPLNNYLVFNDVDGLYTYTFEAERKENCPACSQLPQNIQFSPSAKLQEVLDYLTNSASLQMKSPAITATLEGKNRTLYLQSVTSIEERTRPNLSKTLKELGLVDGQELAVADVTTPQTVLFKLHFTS
Chain of NAE (heterodimer of APPBP1 and UBA3) (Q13564 whole entry partner): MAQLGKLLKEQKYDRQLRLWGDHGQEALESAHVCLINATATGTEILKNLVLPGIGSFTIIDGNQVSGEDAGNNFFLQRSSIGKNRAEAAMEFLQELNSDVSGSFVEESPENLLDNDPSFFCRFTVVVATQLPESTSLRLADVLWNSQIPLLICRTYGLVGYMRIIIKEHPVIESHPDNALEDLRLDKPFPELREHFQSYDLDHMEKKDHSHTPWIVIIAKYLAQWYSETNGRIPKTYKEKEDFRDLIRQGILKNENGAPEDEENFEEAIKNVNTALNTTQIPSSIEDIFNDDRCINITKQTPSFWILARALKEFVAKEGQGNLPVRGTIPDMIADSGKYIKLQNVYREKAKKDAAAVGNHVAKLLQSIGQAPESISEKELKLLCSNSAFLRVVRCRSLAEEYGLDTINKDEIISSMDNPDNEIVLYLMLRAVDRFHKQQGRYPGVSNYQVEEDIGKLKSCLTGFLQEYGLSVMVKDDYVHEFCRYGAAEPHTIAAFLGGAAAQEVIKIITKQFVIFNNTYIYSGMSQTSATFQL

[7] = 120 mg/kg/day intravenously on days 1, 4, 8, 11, day 15
[8] = 50 mg/kg/day intravenously on days 1, 4, 8, 11, day 15

Row | SMILES | IC50 (carbonic anhydrase II) [µM] | RTV comparison with the control on day 15 [4] | IC50 [6] [µM] | also measured
1 | NS(=O)(=O)OC[C@@H]1C[C@@H](n2ccc3c(N[C@H]4CCc5ccccc54)ncnc32)C[C@@H]1O [Comparative Example, N-[(1S)-1-indanyl]-7-[(1R)-3α-hydroxy-4α-(sulfamoyloxymethyl)cyclopentyl]-7H-pyrrolo[2,3-d]pyrimidin-4-amine, reference compound] | 0.012 | – | – | IC50 [1]: > 10000 nM
2 | NS(=O)(=O)OC[C@@H]1C[C@@H](n2ccc3c(N[C@H]4CCc5ccccc54)ncnc32)C[C@H]1O [Comparative Example, N-[(1S)-1-indanyl]-7-[(1R)-3α-hydroxy-4α-(sulfamoyloxymethyl)cyclopentyl]-7H-pyrrolo[2,3-d]pyrimidin-4-amine, reference compound] | – | significantly lower than that of the control | – | inhibitory activity against carbonic anhydrase II (carbonic anhydrase II): exhibited inhibitory activity; T/C15 (%) [2, 7]: 36%; RTV15 comparison with the control ([2]; HCT-116 xenograft): significantly lower than that of the control; BWC15 (%) Mean ± SD [2, 7]: −14.3 ± 5.1%; T/C15 ([3]; HCT-116 xenograft in mice, 120 mg/kg/day intravenous, administration days 1, 4, 8, 11, day 15): 51%; RTV15 comparison with the control ([3]; HCT-116 xenograft, hydrochloride compound of Example 55, Dunnett's test): significantly lower than that of the control; BWC15 Mean ± SD ([3]; body weight change rate, HCT-116 xenograft in mice, 120 mg/kg/day intravenous, days 1, 4, 8, 11, day 15): −8.4 ± 3.2%; T/C15 ([5]; administration days 1, 4, 8, 11, day 15): 47%; BWC15 Mean ± SD ([5]; body weight change rate, days 1, 4, 8, 11, day 15): 6.1 ± 2.6%
3 | Nc1ncnc2c1c(C#Cc1c(F)cccc1F)cn2[C@@H]1O[C@H](CNS(N)(=O)=O)[C@@H](O)[C@H]1O [Example 1, 4-Amino-5-[2-(2,6-difluorophenyl)ethynyl]-7-[(2R,3R,4S,5R)-3,4-dihydroxy-5-[(sulfamoylamino)methyl]tetrahydrofuran-2-yl]pyrrolo[2,3-d]pyrimidine] | – | – | – | T/C15 (%) [2, 8]: 23%; change of the body weight compared with the control ([2]; HCT-116 xenograft mice): within an acceptable degree; RTV comparison with the Comparative Example ([2]; HCT-116 xenograft, Aspin-Welch's t-test): significantly lower than that of the Comparative Example; RTV15 comparison with the control ([2]; HCT-116 xenograft): significantly lower than that of the control; BWC15 (%) Mean ± SD [2, 8]: −11.8 ± 4.7%
4 | Nc1ncnc2c1c(C#Cc1ccccc1F)cn2[C@@H]1O[C@H](CNS(N)(=O)=O)[C@@H](O)[C@H]1O [Example 46, 4-Amino-7-[(2R,3R,4S,5R)-3,4-dihydroxy-5-[(sulfamoylamino)methyl]tetrahydrofuran-2-yl]-5-[2-(2-fluorophenyl)ethynyl]pyrrolo[2,3-d]pyrimidine] | > 1 | – | 0.013 | –
5 | COc1ccccc1C#Cc1cn([C@@H]2O[C@H](CNS(N)(=O)=O)[C@@H](O)[C@H]2O)c2ncnc(N)c12 [Example 47, 4-Amino-7-[(2R,3R,4S,5R)-3,4-dihydroxy-5-[(sulfamoylamino)methyl]tetrahydrofuran-2-yl]-5-[2-(2-methoxyphenyl)ethynyl]pyrrolo[2,3-d]pyrimidine] | > 1 | – | 0.0093 | –
6 | Nc1ncnc2c1c(C#Cc1ccc(OCc3ccccc3)cn1)cn2[C@@H]1O[C@H](CNS(N)(=O)=O)[C@@H](O)[C@H]1O [Example 52, 4-Amino-5-[2-(5-benzyloxy-2-pyridyl)ethynyl]-7-[(2R,3R,4S,5R)-3,4-dihydroxy-5-[(sulfamoylamino)methyl]tetrahydrofuran-2-yl]pyrrolo[2,3-d]pyrimidine] | > 1 | – | 0.008 | –
7 | CCCOc1cccc(F)c1C#Cc1cn([C@@H]2O[C@H](CNS(N)(=O)=O)[C@@H](O)[C@H]2O)c2ncnc(N)c12 [Example 60, 4-Amino-7-[(2R,3R,4S,5R)-3,4-dihydroxy-5-[(sulfamoylamino)methyl]tetrahydrofuran-2-yl]-5-[2-(2-fluoro-6-propoxy-phenyl)ethynyl]pyrrolo[2,3-d]pyrimidine] | > 1 | – | 0.0085 | –
8 | CN1CCOc2c1ccc(F)c2C#Cc1cn([C@@H]2O[C@H](CNS(N)(=O)=O)[C@@H](O)[C@H]2O)c2ncnc(N)c12 [Example 64, 8-[2-[4-Amino-7-[(2R,3R,4S,5R)-3,4-dihydroxy-5-[(sulfamoylamino)methyl]tetrahydrofuran-2-yl]pyrrolo[2,3-d]pyrimidin-5-yl]ethynyl]-7-fluoro-4-methyl-2,3-dihydro-1,4-benzoxazine] | > 1 | significantly lower than that of the control | 0.0094 | T/C15 [4]: 8%; RTV comparison with the Comparative Example [4]: significantly lower than that of the Comparative Example; BWC15 Mean ± SD [4]: 4.1 ± 1.6%
9 | CCSc1cccc(F)c1C#Cc1cn([C@@H]2O[C@H](CNS(N)(=O)=O)[C@@H](O)[C@H]2O)c2ncnc(N)c12 [Example 66, 4-Amino-7-[(2R,3R,4S,5R)-3,4-dihydroxy-5-[(sulfamoylamino)methyl]tetrahydrofuran-2-yl]-5-[2-(2-ethylsulfanyl-6-fluoro-phenyl)ethynyl]pyrrolo[2,3-d]pyrimidine] | > 1 | – | 0.0071 | –
10 | Nc1ncnc2c1c(C#Cc1c(F)cc(N3CC[C@@H](O)C3)cc1F)cn2[C@@H]1C[C@H](CNS(N)(=O)=O)[C@@H](O)[C@H]1O [Example 120, 4-Amino-5-[2-[2,6-difluoro-4-[(3R)-3-hydroxypyrrolidin-1-yl]phenyl]ethynyl]-7-[(1R,2S,3R,4R)-2,3-dihydroxy-4-[(sulfamoylamino)methyl]cyclopentyl]pyrrolo[2,3-d]pyrimidine] | > 1 | significantly lower than that of the control | 0.0043 | change of the body weight compared with the control [4]: almost the same as that of the control
11 | CN1CCOc2c1ccc(F)c2C#Cc1cn([C@@H]2C[C@H](CNS(N)(=O)=O)[C@@H](O)[C@H]2O)c2ncnc(N)c12 [Example 122, 8-[2-[4-amino-7-[(1R,2S,3R,4R)-2,3-dihydroxy-4-[(sulfamoylamino)methyl]cyclopentyl]pyrrolo[2,3-d]pyrimidin-5-yl]ethynyl]-7-fluoro-4-methyl-2,3-dihydro-1,4-benzoxazine] | > 1 | significantly lower than that of the control | 0.02 | T/C15 [4]: 6%; RTV comparison with the Comparative Example [4]: significantly lower than that of the Comparative Example; BWC15 Mean ± SD [4]: 6.0 ± 4.5%
12 | Nc1ncnc2c1c(C#Cc1cccc3ccccc13)cn2[C@@H]1O[C@H](COS(N)(=O)=O)[C@@H](O)[C@H]1O [Example 133, [(2R,3S,4R,5R)-5-[4-Amino-5-[2-(1-naphthyl)ethynyl]pyrrolo[2,3-d]pyrimidin-7-yl]-3,4-dihydroxy-tetrahydrofuran-2-yl]methyl sulfamate] | – | significantly lower than that of the control | 0.025 | change of the body weight compared with the control [4]: almost the same as that of the control
13 | CCS(=O)(=O)c1cccc(F)c1C#Cc1cn([C@H]2C[C@H](O)[C@@H](CNS(N)(=O)=O)O2)c2ncnc(N)c12 [Example 143, 4-Amino-5-[2-(2-ethylsulfonyl-6-fluoro-phenyl)ethynyl]-7-[(2R,4S,5R)-4-hydroxy-5-[(sulfamoylamino)methyl]tetrahydrofuran-2-yl]pyrrolo[2,3-d]pyrimidine] | > 1 | – | 0.024 | –
